{
  "source": "patent US11040108B2",
  "about": "“Amino acid- and peptide-steroid conjugates and use thereof” (BRANDEIS UNIVERSITY, priority 2016, dated 2021)",
  "key": {"A2780cis cells": {"system": "A2780cis cells", "assay": "MTT assay, cytotoxicity against A2780cis", "format": "cell-based, human", "description": "(§1) HeLa, Saos-2, HS-5, HepG2, T98G, and A2780 cells were purchased from American-type Culture Collection (ATCC, USA). A2780cis cell was purchased from Sigma. HeLa cells, HepG-2 cells, and T98G cells were cultured in MEM Medium supplemented with 10% v/v fetal bovine serum, 100 U/mL penicillin, and 100 μg/mL streptomycin. Saos-2 cells were cultured in McCoy's 5a Medium (for Saos-2) supplemented with 15% v/v fetal bovine serum, 100 U/mL penicillin, and 100 μg/mL streptomycin. HS-5 cells were cultured in Dulbecco's Modified Eagle's medium (DMEM) supplemented with 10% v fetal bovine serum (FBS), 100 U/mL penicillin, and 100 μg/mL streptomycin. A2780cis cells were cultured in RPMI 1640 Medium supplemented with 10% v/v fetal bovine serum, 100 U/mL penicillin, and 100 μg/mL streptomycin (cisplatin only necessary every 2-3 passages). All cells were maintained at 37° C. in a humidified atmosphere of 5% CO2.\n(§2) An MTT assay was used to test the cytotoxicity. All different cell lines were seeded in 96-well plates at 1×10^5 cells/well for 24 hours followed by removal of the culture medium and subsequent addition of culture medium containing different concentrations of the precursors. At designated time (24/48/72 hours), 10 μL MTT solution (5 mg/mL) was added to each well and incubated at 37° C. for another 4 hours, and then 100 μL of SDS-HCl solution was added to stop the reduction reaction and dissolve the purple formazan. The absorbance of each well at 595 nm was measured by a multimode microplate reader. The cytotoxicity assay was performed three times and the average value of the three measurements was taken.\nThe activity of conjugate 1a against a platinum-resistant, ovarian cancer cell line (A2780cis) (Behrens et al., “Characterization of a Cis-Diamminedichloroplatinum(Ii)-Resistant Human Ovarian Cancer Cell Line and its Use in Evaluation of Platinum Analogues,” Cancer Res. 47:414 (1987); Masuda et al., “Increased DNA Repair as a Mechanism of Acquired Resistance to Cis-Diamminedichloroplatinum (II) in Human Ovarian Cancer Cell Lines,” Cancer Res. 48:5713 (1988), which are hereby incorporated by reference in their entirety) was first examined. To assess the efficacy of conjugate 1a, the assay was carried out in parallel using the known, clinically used cytotoxic agent, cisplatin."}, "HeLa cells": {"system": "HeLa cells", "assay": "MTT assay, cytotoxicity against HeLa", "format": "cell-based, human", "settings": "for IC50: Homo sapiens, HeLa, 48 h, read-out: IC50 against HeLa cell", "description": "as §1, §2\nTo confirm that assemblies of the cholesterol conjugate are able to inhibit other cancer cell lines, 1a was incubated with HeLa cells, a widely studied malignant cervical cancer cell line."}, "[1]": {"system": "HeLa, A2780cis, OVASHO, MES-SA/dx5 and Saos-2 cells", "assay": "NBD visualization of nano-aggregates in cancer cell lines (CLSM)", "format": "cell-based", "settings": "25 μM; 11a in all five cell lines, 11b in OVASHO and MES-SA/dx5", "description": "Different cancer cells at the density of 1.5×10^5 were seeded onto 3.5 cm confocal dish. After the growth of cells in cell incubator for 24 h, 11a (or 11b) at 25 μM was added to the above solution with completed medium. At designated times, PBS was used to wash cells 3 times for 1 minute. Hoechst 33342 was used to stain cell nucleus for 10 minutes, and cells were then washed using live cell imaging solution 3 times for 1 minute. Cells were maintained in live cell imaging solution, and CLSM was carried out immediately. The excitation of wavelength was 488 nm, and the emission was 500 nm to 596 nm."}, "A2780 cell line": {"system": "A2780 cell line", "assay": "Cell viability of unstimulated or selected A2780 cell line (acquired resistance)", "format": "cell-based", "settings": "after five weeks treatment with gradually increased concentrations; 24, 48, 72 h", "description": "as §2\nThe activity of 1a against non-drug resistant cancer cells was assessed using the A2780 cell line."}, "[2]": {"assay": "TEM of assemblies in aqueous solution", "format": "physicochemical", "settings": "1.0 wt %; for diameter of assemblies on direct dissolution in water: without ALP, 1b spheres-like vesicle, 2b nanoribbon", "description": "Sample solution (5 sufficient to cover the grid surface) was placed on the grid. Approximately 10 sec later, sample was rinsed by placing a large drop of the ddH2O on parafilm and allowing the grid to touch the water drop, with the sample-loaded surface facing the parafilm. The grid was tilted and water was gently absorbed from the edge of the grid using a filter paper sliver. This procedure was repeated 3 times. Immediately after rinsing, the staining was conducted by placing a large drop of the uranyl acetate (UA) stain solution on parafilm and allowing the grid to touch the stain solution drop, with the sample-loaded surface facing the parafilm. The grid was tilted and the stain solution was gently absorbed from the edge of the grid using a filter paper sliver. Next, the grid was allowed to dry in air and the grid was examined as soon as possible.\nTo further understand the inhibitory activity of 1a, transmission electron microscopy (TEM) was used to confirm the EISA of 1b. […] In contrast, uniform nanofibers (diameter of 10±2 nm) formed after the addition of ALP (1 U/mL) into the solution of 1a (FIG. 3B). The resulted nanofibers entangled with each other to result in a viscous solution. […] But the direct dissolution of 2b (1.0 wt %) provided an aqueous solution containing nanoribbon with the diameter of 17±2 nm and in several hundred nanometer length (FIG. 4B). These observations, collectively, confirmed that enzymatic reaction modulated the morphology of the assemblies of the cholesterol conjugates, which partially contributed to the different inhibitory activities of 1a, 1b, 2a, and 2b. That is, being exposed to the cancer cell, 1a (or 2a) turns into 1b (or 2b), a process catalyzed by the extra- or intracellular enzymes of the cancer cells; the resulting 1b (or 2b) self-assembled to form nanoscale assemblies that result in death of the cancer cell."}, "[3]": {"system": "HS-5 cell line (human bone marrow stroma cell line)", "assay": "MTT assay, cell viability of HS-5", "format": "cell-based", "settings": "12.5 μM, 48 hours (FIG. 5A)", "description": "as §1, §2\nTo verify the selectivity of 1a against cancer cells, the HS-5 cell line (human bone marrow stroma cell line) was used; HS-5 hardly overexpresses ALP on cell surface. […] To further confirm that ALP on cell surface (i.e., as an ectophosphatase) contributed to the inhibitory activity of 1a, A2780cis were incubated with 1a and ALP (1 U/mL).\nAdditional cell viability assays were carried out using conjugates 1a and 1b, optionally with 3, against HepG2 human liver carcinoma cells, Saos-2 osteosarcoma cells, T98G glioblastoma cells, HS-5 (normal bone marrow stromal cells), A2780 ovarian cancer cells (parental line to A2780cis), and Kuramochi ovarian cancer cells. Conjugate 1a was particularly effective against ovarian and cervical cancer cells."}, "[4]": {"settings": "concentration of 100 μM (FIG. 10)"}, "[5]": {"settings": "read-out: IC50 against A2780cis, 72 hours"}, "[6]": {"settings": "48 hours (FIG. 9A), unit inferred"}},
  "note": "Read-outs that look alike come from different tables or passages of the source.",
  "data": [
    {"smiles": "CC(C)CCC[C@@H](C)C1CC[C@H]2[C@@H]3CC=C4CC(OC(=O)NC(Cc5ccccc5)C(=O)O)CC[C@]4(C)[C@H]3CC[C@]12C", "note": "(stereo partly drawn) [compound 3, Cholesterol-D-Phe]", "values": [
      {"measurement": "effect on A2780cis cells", "setting": "A2780cis cells; [4]", "result": "innocuous"},
      {"measurement": "effect on HeLa cells", "setting": "HeLa cells; [4]", "result": "innocuous"}
    ]},
    {"smiles": "CC(C)CCC[C@@H](C)C1CC[C@H]2[C@@H]3CC=C4CC(OC(=O)NC(Cc5ccc(OP(=O)(O)O)cc5)C(=O)N[C@H](CCCCNc5ccc([N+](=O)[O-])c6nonc56)C(=O)O)CC[C@]4(C)[C@H]3CC[C@]12C", "note": "(stereo partly drawn) [11a, cholesterol-(phospho)y-(NBD)k]", "values": [
      {"measurement": "presence of nano-aggregates in or on treated cells", "setting": "[1]", "result": "confirmed presence of nano-aggregates"}
    ]},
    {"smiles": "N.N.[Cl][Pt][Cl]", "note": "[cisplatin, reference compound]", "values": [
      {"measurement": "IC50 against A2780cis", "setting": "A2780cis cells; 48 hours", "result": 21.2, "unit": "µg/mL"},
      {"measurement": "IC50 against A2780cis", "setting": "A2780cis cells; 72 hours", "result": 12.2, "unit": "µg/mL"},
      {"measurement": "IC50", "setting": "A2780cis cells; 72 hours, read-out: IC50 against A2780cis", "result": 41, "unit": "µM"},
      {"measurement": "inhibition of A2780 and acquired drug resistance", "setting": "A2780 cell line", "result": "caused platinum-resistance"}
    ]},
    {"smiles": "CC(C)CCC[C@@H](C)C1CC[C@H]2[C@@H]3CC=C4CC(OC(=O)NC(Cc5ccc(OP(=O)(O)O)cc5)C(=O)O)CC[C@]4(C)[C@H]3CC[C@]12C", "note": "(stereo partly drawn) [2a, Cholesterol-(phospho)L-Tyr]", "values": [
      {"measurement": "IC50 against A2780cis", "setting": "A2780cis cells; 72 hours", "result": 15.2, "unit": "µg/mL"},
      {"measurement": "IC50", "setting": "A2780cis cells; [5]", "result": 22, "unit": "µM"},
      {"measurement": "IC50", "setting": "HeLa cells; [6]", "result": 43.8, "unit": "µM"},
      {"measurement": "morphology in aqueous solution without ALP", "setting": "[2]; pH 7.4", "result": "disorder aggregates"},
      {"measurement": "diameter of nanofibers formed after addition of ALP", "setting": "[2]; pH 7.4, ALP 1 U/mL, 24 hours", "result": "15±2", "unit": "nm"}
    ]},
    {"smiles": "CC(C)CCC[C@@H](C)C1CC[C@H]2[C@@H]3CC=C4CC(OC(=O)NC(Cc5ccc(O)cc5)C(=O)O)CC[C@]4(C)[C@H]3CC[C@]12C", "note": "(stereo partly drawn) [1b, Cholesterol-D-Tyr]", "values": [
      {"measurement": "cell viability / proliferation of A2780cis", "setting": "A2780cis cells; 12.5 μM, 48 hours (FIG. 5A)", "result": "hardly inhibited"},
      {"measurement": "IC50", "setting": "A2780cis cells; Homo sapiens, A2780cis, 72 h, read-out: IC50 against A2780cis, 72 hours", "result": 50, "unit": "µM"},
      {"measurement": "IC50", "setting": "HeLa cells", "result": 89.7, "unit": "µM"},
      {"measurement": "cell viability / proliferation of HS-5", "setting": "[3]", "result": "hardly inhibited"},
      {"measurement": "diameter of assemblies on direct dissolution in water", "setting": "[2]", "result": "25±2", "unit": "nm"}
    ]},
    {"smiles": "CC(C)CCC[C@@H](C)C1CC[C@H]2[C@@H]3CC=C4CC(OC(=O)NC(Cc5ccc(O)cc5)C(=O)O)CC[C@]4(C)[C@H]3CC[C@]12C", "note": "(stereo partly drawn) [2b, Cholesterol-L-Tyr]", "values": [
      {"measurement": "IC50", "setting": "A2780cis cells; [5]", "result": 36, "unit": "µM"},
      {"measurement": "IC50", "setting": "HeLa cells; [6]", "result": 59.2, "unit": "µM"},
      {"measurement": "diameter of assemblies on direct dissolution in water", "setting": "[2]", "result": "17±2", "unit": "nm"}
    ]},
    {"smiles": "CC(C)CCC[C@@H](C)C1CC[C@H]2[C@@H]3CC=C4CC(OC(=O)NC(Cc5ccc(O)cc5)C(=O)N[C@H](CCCCNc5ccc([N+](=O)[O-])c6nonc56)C(=O)O)CC[C@]4(C)[C@H]3CC[C@]12C", "note": "(stereo partly drawn) [11b, cholesterol-y-(NBD)k]", "values": [
      {"measurement": "presence of nano-aggregates in or on treated cells", "setting": "[1]", "result": "confirmed presence of nano-aggregates"}
    ]}
  ]
}
